Activity and Cp data for one compound are collected here from ChEMBL document CHEMBL4428063, “Novel Pyrimidine Toll-like Receptor 7 and 8 Dual Agonists to Treat Hepatitis B Virus” (J Med Chem, 2016).

Series [1] has as its target Toll-like receptor 5 (Homo sapiens) (UniProt O60602). As to the kind of experiment: Agonist activity at wild-type human TLR5 expressed in HEK293 cells up to 25 uM measured after 6 hrs by NF-kappaB luciferase reporter gene assay. The format is cell-based. Background: In a reporter assay the amount or activity of a reporter protein is the signal.
A short description of series [2]: Plasma concentration in C57Bl/6 mouse infected with HBV genotype D at 5 mg/kg, po dosed once per week for 8 weeks administered 6 weeks after viral infection and measured on day 42 post 1 hr of dosage. Type of series: ADME, organism-based. To be noted: in vivo.
In series [3] the target is T1, Toll-like receptor 6 (Homo sapiens) (UniProt Q9Y2C9).
T1 sequence (whole entry): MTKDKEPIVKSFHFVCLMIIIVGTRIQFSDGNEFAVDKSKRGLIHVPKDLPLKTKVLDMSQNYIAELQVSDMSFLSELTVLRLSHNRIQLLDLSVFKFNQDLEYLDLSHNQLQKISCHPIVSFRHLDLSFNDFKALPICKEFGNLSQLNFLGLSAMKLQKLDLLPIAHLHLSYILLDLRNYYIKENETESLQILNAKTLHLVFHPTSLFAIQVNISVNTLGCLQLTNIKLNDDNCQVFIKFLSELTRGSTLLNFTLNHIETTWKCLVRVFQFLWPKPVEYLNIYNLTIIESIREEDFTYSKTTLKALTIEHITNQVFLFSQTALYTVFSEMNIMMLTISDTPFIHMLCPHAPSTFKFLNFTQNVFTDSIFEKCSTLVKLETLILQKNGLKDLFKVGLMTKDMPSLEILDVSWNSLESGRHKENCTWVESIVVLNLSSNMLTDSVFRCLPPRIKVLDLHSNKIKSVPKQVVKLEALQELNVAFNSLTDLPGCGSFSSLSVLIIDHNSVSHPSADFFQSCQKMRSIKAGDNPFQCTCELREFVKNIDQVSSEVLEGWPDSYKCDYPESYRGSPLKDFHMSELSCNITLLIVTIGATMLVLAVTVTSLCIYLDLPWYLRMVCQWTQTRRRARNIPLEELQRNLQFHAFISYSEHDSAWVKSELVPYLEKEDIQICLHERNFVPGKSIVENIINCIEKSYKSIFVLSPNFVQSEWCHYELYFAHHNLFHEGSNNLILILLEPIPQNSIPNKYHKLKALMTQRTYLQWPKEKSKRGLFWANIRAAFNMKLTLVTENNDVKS
As to the kind of experiment: Agonist activity at wild-type human TLR6 expressed in HEK293 cells up to 25 uM measured after 6 hrs by NF-kappaB luciferase reporter gene assay. The format is cell-based.

Active and inactive are the calls of the source. No cut-off for these calls is given here.

Toll-like receptor 5 (Homo sapiens), sequence (O60602 whole entry): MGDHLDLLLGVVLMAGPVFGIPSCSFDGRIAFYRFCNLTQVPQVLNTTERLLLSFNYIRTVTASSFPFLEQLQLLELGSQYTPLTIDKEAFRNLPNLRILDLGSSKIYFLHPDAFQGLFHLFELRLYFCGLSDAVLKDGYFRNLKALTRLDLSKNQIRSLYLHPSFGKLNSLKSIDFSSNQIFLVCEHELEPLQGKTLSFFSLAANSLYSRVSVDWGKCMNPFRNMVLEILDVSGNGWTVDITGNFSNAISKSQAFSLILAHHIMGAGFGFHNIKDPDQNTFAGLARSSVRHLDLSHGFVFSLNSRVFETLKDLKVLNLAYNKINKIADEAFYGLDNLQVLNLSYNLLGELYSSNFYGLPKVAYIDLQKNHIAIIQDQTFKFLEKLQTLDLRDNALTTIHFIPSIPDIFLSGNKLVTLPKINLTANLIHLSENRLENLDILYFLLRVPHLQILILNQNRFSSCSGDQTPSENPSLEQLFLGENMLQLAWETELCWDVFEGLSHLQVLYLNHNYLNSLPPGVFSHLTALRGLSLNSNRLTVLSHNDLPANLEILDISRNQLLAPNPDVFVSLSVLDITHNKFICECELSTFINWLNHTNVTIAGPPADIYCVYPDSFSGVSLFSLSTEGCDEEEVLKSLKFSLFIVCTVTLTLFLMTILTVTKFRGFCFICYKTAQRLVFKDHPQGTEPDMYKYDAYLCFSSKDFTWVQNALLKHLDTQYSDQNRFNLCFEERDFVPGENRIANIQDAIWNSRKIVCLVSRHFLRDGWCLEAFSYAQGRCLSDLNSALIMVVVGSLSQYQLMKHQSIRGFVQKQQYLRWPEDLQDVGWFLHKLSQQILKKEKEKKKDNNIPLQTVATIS

As for `CCCC[C@@H](CCO)Nc1nc(N)ncc1OC`, the outcome in series [1] and in series [3] was inactive. In addition, the Cp in series [2] came to 0.245 µg/mL.
